Experimental data taken from PubChem BioAssay AID330 (DTP/NCI, 2004).
“And” between values parts separate entries of the source, which are not always exact repeats. Equal entries are not always repeated. Toxic doses and inconclusive results are not listed. How the source made its calls: active means survival T/C of 150% or more; inactive means T/C below 125% in these data.

Test system: P388 leukemia ip, CD2F1 mice, survival T/C
Assay: NCI In Vivo Anticancer Drug Screen. Data for tumor model P388 Leukemia (intraperitoneal) in CD2F1 (CDF1) mice
Settings: endpoint: median survival time, higher = longer survival
Summary of the method: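 Mice carrying the transplanted tumor received test compound or vehicle. Survival was recorded in each group, and the value is the treated-group measurement divided by that of the vehicle-treated control group.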

[1] = dose: 50.0 mg/kg/injection, schedule: Q01DX005 (ip), vehicle: saline with Tween-80
[2] = dose: 60.0 mg/kg/injection, schedule: Q01DX005 (ip), vehicle: saline with Tween-80
[3] = dose: 120.0 mg/kg/injection, schedule: Q01DX005 (ip), vehicle: saline with Tween-80
[4] = dose: 50.0 mg/kg/injection, schedule: Q01DX005 (ip), vehicle: Klucel (hydroxypropylcellulose) (HPC)
[5] = dose: 200.0 mg/kg/injection, schedule: Q01DX005 (ip), vehicle: Klucel (hydroxypropylcellulose) (HPC)
[6] = dose: 25.0 mg/kg/injection, schedule: Q01DX009 (ip), vehicle: saline with Tween-80
[7] = dose: 50.0 mg/kg/injection, schedule: Q01DX009 (ip), vehicle: saline with Tween-80
[8] = dose: 100.0 mg/kg/injection, schedule: Q01DX009 (ip), vehicle: saline with Tween-80

Measured: T/C

N#C[C@H]1O[C@H]1c1ccc[n+]([O-])c1
inactive: dose: 12.5 mg/kg/injection, schedule: Q01DX005 (ip), vehicle: saline 107 % of control | dose: 25.0 mg/kg/injection, schedule: Q01DX005 (ip), vehicle: saline 102 % of control | dose: 50.0 mg/kg/injection, schedule: Q01DX005 (ip), vehicle: saline 103 % of control and 115 % of control

COc1ccc(C(=O)Cc2nc3nnc(N)n3nc2CC(=O)c2ccc(OC)cc2)cc1
inactive: dose: 60.0 mg/kg/injection, schedule: Q01DX005 (ip), vehicle: saline 96 % of control | dose: 120.0 mg/kg/injection, schedule: Q01DX005 (ip), vehicle: saline 100 % of control | dose: 240.0 mg/kg/injection, schedule: Q01DX005 (ip), vehicle: saline 100 % of control

Cc1ccc(/C=C/[N+](=O)[O-])cc1
inactive: dose: 6.25 mg/kg/injection, schedule: Q01DX009 (ip), vehicle: saline sonified 100 % of control | dose: 12.5 mg/kg/injection, schedule: Q01DX009 (ip), vehicle: saline sonified 100 % of control | dose: 25.0 mg/kg/injection, schedule: Q01DX009 (ip), vehicle: saline sonified 100 % of control

Cc1c2cnccc2c(C)c2c1c1ccccc1n2CCOC(=O)c1ccccc1
inactive: dose: 100.0 mg/kg/injection, schedule: Q04DX003 (ip), vehicle: saline with Tween-80 95 % of control | dose: 200.0 mg/kg/injection, schedule: Q04DX003 (ip), vehicle: saline with Tween-80 86 % of control | dose: 400.0 mg/kg/injection, schedule: Q04DX003 (ip), vehicle: saline with Tween-80 86 % of control

COC1(C)CNc2ccccc2C(=O)N1 (stereo unspecified)
inactive: [1] 96 % of control | dose: 100.0 mg/kg/injection, schedule: Q01DX005 (ip), vehicle: saline with Tween-80 98 % of control | dose: 200.0 mg/kg/injection, schedule: Q01DX005 (ip), vehicle: saline with Tween-80 94 % of control

CCCCCCCCN1CCOCCOCCN(CCCCCCCC)c2nc(Cl)nc(n2)NCCOCCOCCNc2nc(Cl)nc1n2
inactive: [2] 98 % of control | [3] 93 % of control

CCN(CC)CCOC(=O)c1ccc(N)cc1
inactive: dose: 50.0 mg/kg/injection, schedule: Q01DX009 (ip), vehicle: saline 98 % of control | dose: 100.0 mg/kg/injection, schedule: Q01DX009 (ip), vehicle: saline 100 % of control

CC(=O)OC(COS(C)(=O)=O)C(OC(C)=O)C(OC(C)=O)C(COS(C)(=O)=O)OC(C)=O (stereo unspecified)
inactive: dose: 100.0 mg/kg/injection, schedule: Q01DX001 (ip), vehicle: Klucel (hydroxypropylcellulose) (HPC) 108 % of control | dose: 200.0 mg/kg/injection, schedule: Q01DX001 (ip), vehicle: Klucel (hydroxypropylcellulose) (HPC) 100 % of control | dose: 400.0 mg/kg/injection, schedule: Q01DX001 (ip), vehicle: Klucel (hydroxypropylcellulose) (HPC) 117 % of control

CN(C)N=Nc1ccc(C(=O)NC(Cc2ccccc2)C(=O)O)cc1 (stereo unspecified)
inactive: dose: 12.5 mg/kg/injection, schedule: Q01DX005 (ip), vehicle: Klucel (hydroxypropylcellulose) (HPC) 100 % of control | dose: 25.0 mg/kg/injection, schedule: Q01DX005 (ip), vehicle: Klucel (hydroxypropylcellulose) (HPC) 101 % of control | [4] 98 % of control and 102 % of control | [5] 107 % of control

O=NN(CCF)C(=O)Oc1ccc([N+](=O)[O-])cc1
inactive: dose: 12.5 mg/kg/injection, schedule: Q01DX001 (ip), vehicle: Klucel (hydroxypropylcellulose) (HPC) 114 % of control | dose: 25.0 mg/kg/injection, schedule: Q01DX001 (ip), vehicle: Klucel (hydroxypropylcellulose) (HPC) 112 % of control

COc1cc(C2C(C#N)=C(C)Nc3nc(N)nc(N)c32)cc(OC)c1OC (stereo unspecified)
inactive: [2] 94 % of control | [3] 106 % of control | dose: 240.0 mg/kg/injection, schedule: Q01DX005 (ip), vehicle: saline with Tween-80 104 % of control

COCc1cccc2ccnc(COC)c12
inactive: dose: 100.0 mg/kg/injection, schedule: Q01DX001 (ip), vehicle: saline 100 % of control | dose: 200.0 mg/kg/injection, schedule: Q01DX001 (ip), vehicle: saline 102 % of control | dose: 400.0 mg/kg/injection, schedule: Q01DX001 (ip), vehicle: saline 103 % of control

Cc1coc2c1CC1OC1(C)CCC1OC1(C)C2 (stereo unspecified)
inactive: dose: 12.5 mg/kg/injection, schedule: Q01DX005 (ip), vehicle: Klucel + Tween-80 96 % of control | dose: 25.0 mg/kg/injection, schedule: Q01DX005 (ip), vehicle: Klucel + Tween-80 98 % of control | dose: 50.0 mg/kg/injection, schedule: Q01DX005 (ip), vehicle: Klucel + Tween-80 99 % of control | dose: 100.0 mg/kg/injection, schedule: Q01DX005 (ip), vehicle: Klucel + Tween-80 106 % of control

COP(=O)(N/N=C/C(=O)O)OC
inactive: dose: 12.5 mg/kg/injection, schedule: Q01DX009 (ip), vehicle: water 104 % of control | dose: 25.0 mg/kg/injection, schedule: Q01DX009 (ip), vehicle: water 103 % of control | dose: 50.0 mg/kg/injection, schedule: Q01DX009 (ip), vehicle: water 101 % of control | dose: 100.0 mg/kg/injection, schedule: Q01DX009 (ip), vehicle: water 96 % of control | dose: 200.0 mg/kg/injection, schedule: Q01DX009 (ip), vehicle: water 95 % of control

Clc1ccc(N=c2ccn3ccccc3c2)cc1Cl
inactive: dose: 12.5 mg/kg/injection, schedule: Q01DX009 (ip), vehicle: saline with Tween-80 94 % of control | [6] 94 % of control | [7] 97 % of control

COc1ccc(Br)c(C(=O)Sc2nnnn2-c2cccc(Cl)c2)c1
inactive: [7] 111 % of control | [8] 116 % of control | dose: 200.0 mg/kg/injection, schedule: Q01DX009 (ip), vehicle: saline with Tween-80 115 % of control

Cn1c(=O)c2snnc2n(C)c1=O
inactive: dose: 100.0 mg/kg/injection, schedule: Q04DX003 (ip), vehicle: Klucel (hydroxypropylcellulose) (HPC) 107 % of control | dose: 200.0 mg/kg/injection, schedule: Q04DX003 (ip), vehicle: Klucel (hydroxypropylcellulose) (HPC) 104 % of control

CN(CCC(CCC(=O)O)(C(=O)O)c1ccccc1)Cc1ccccc1 (stereo unspecified)
inactive: [4] 92 % of control | dose: 100.0 mg/kg/injection, schedule: Q01DX005 (ip), vehicle: Klucel (hydroxypropylcellulose) (HPC) 100 % of control | [5] 98 % of control

COc1ccc(-c2c(-c3ccccc3)oc(/N=C/c3ccccc3)c2-c2ccccc2)cc1
inactive: dose: 12.5 mg/kg/injection, schedule: Q01DX005 (ip), vehicle: saline with Tween-80 101 % of control | dose: 25.0 mg/kg/injection, schedule: Q01DX005 (ip), vehicle: saline with Tween-80 90 % of control | [1] 90 % of control

CN(C)C1C(O)C2Oc3c(cc(O)c4c3C(=O)c3cc5c(c(O)c3C4=O)CCC(C)(O)C5)C(C)(O2)C1O (stereo unspecified)
inactive: dose: 12.5 mg/kg/injection, schedule: Q04DX003 (ip), vehicle: other 112 % of control | dose: 25.0 mg/kg/injection, schedule: Q04DX003 (ip), vehicle: other 113 % of control | dose: 50.0 mg/kg/injection, schedule: Q04DX003 (ip), vehicle: other 118 % of control | dose: 100.0 mg/kg/injection, schedule: Q04DX003 (ip), vehicle: other 122 % of control

CCOC(=O)C[N+]12CCC34c5cc(OC)c(OC)cc5N5C(=O)CC6OCC=C(C1)C(CC32)C6C54 (stereo unspecified)
inactive: dose: 1.56 mg/kg/injection, schedule: Q01DX009 (ip), vehicle: saline with Tween-80 100 % of control and 108 % of control | dose: 3.12 mg/kg/injection, schedule: Q01DX009 (ip), vehicle: saline with Tween-80 100 % of control and 108 % of control | [6] 105 % of control (2×) and 94 % of control | [7] 105 % of control and 111 % of control and 95 % of control | [8] 105 % of control and 111 % of control and 98 % of control

COc1ccc(=NC(C)=O)c2c(O)c3c(=O)c4[nH]c5c(OC)ccc(=NC(C)=O)c5c(O)c4c(=O)c3[nH]c12
inactive: dose: 50.0 mg/kg/injection, schedule: Q01DX009 (ip), vehicle: Klucel (hydroxypropylcellulose) (HPC) 89 % of control | dose: 100.0 mg/kg/injection, schedule: Q01DX009 (ip), vehicle: Klucel (hydroxypropylcellulose) (HPC) 99 % of control | dose: 200.0 mg/kg/injection, schedule: Q01DX009 (ip), vehicle: Klucel (hydroxypropylcellulose) (HPC) 99 % of control

CCCCCCCCC(O)C#CC(N)=O (stereo unspecified)
inactive: dose: 100.0 mg/kg/injection, schedule: Q01DX001 (ip), vehicle: saline with Tween-80 99 % of control | dose: 200.0 mg/kg/injection, schedule: Q01DX001 (ip), vehicle: saline with Tween-80 90 % of control
